Laboratory results as given in patent publication US10730872B2, “Pesticidally active heterocyclic derivatives with sulphur containing sustitutents” (SYNGENTA PARTICIPATIONS AG, priority 2015, dated 2020).

Tests used:
Format in all cases: in vivo
Diabrotica balteata = Diabrotica balteata (Corn Root Worm); details: 96 h, application rate of 200 ppm, sprayed maize sprouts, L2 larvae, 4 days after infestation, read-out: effect in at least one of the two categories (mortality or growth inhibition)
Method: Maize sprouts placed onto an agar layer in 24-well microtiter plates were treated with aqueous test solutions prepared from 10,000 ppm DMSO stock solutions by spraying. After drying, the plates were infested with L2 larvae (6 to 10 per well). The samples were assessed for mortality and growth inhibition in comparison to untreated samples 4 days after infestation.

Myzus persicae [1] = test: Myzus persicae (Green Peach Aphid): Feeding/Contact Activity; details: foliar, 144 h, application rate of 200 ppm, sprayed sunflower leaf discs, aphid population of mixed ages, 6 days after infestation
Method: Sunflower leaf discs were placed onto agar in a 24-well microtiter plate and sprayed with aqueous test solutions prepared from 10,000 ppm DMSO stock solutions. After drying, the leaf discs were infested with an aphid population of mixed ages. The samples were assessed for mortality 6 days after infestation.

Plutella xylostella = Plutella xylostella (Diamond Back Moth); details: 120 h, application rate of 200 ppm, artificial diet, L2 larvae, 5 days after infestation, read-out: effect in at least one of the two categories (mortality or growth inhibition)
Method: 24-well microtiter plates with artificial diet were treated with aqueous test solutions prepared from 10,000 ppm DMSO stock solutions by pipetting. After drying, the plates were infested with L2 larvae (10 to 15 per well). The samples were assessed for mortality and growth inhibition in comparison to untreated samples 5 days after infestation.

Spodoptera littoralis [2] = test: Spodoptera littoralis (Egyptian Cotton Leaf Worm), sprayed cotton leaf discs; details: foliar, 72 h, application rate of 200 ppm, L1 larvae, 3 days after infestation
Summary of the method: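 Cotton leaf discs on agar sprayed with aqueous dilutions of 10,000 ppm DMSO stocks, dried, then infested with five L1 larvae. Mortality, anti-feeding and growth inhibition scored against untreated discs 3 days after infestation. Control recorded when any one category exceeds the untreated sample.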

Aedes aegypti = test: Aedes Aegypti (Yellow Fever Mosquito); details: 200 ppm in ethanol, dry deposit in 12 well plates, adult females, after 48 h and/or 24 h
Method: Test solutions, at an application rate of 200 ppm in ethanol, were applied to 12 well tissue culture plates. Once the deposits were dry, five, two to five day old adult female Aedes aegypti were added to each well, and sustained with a 10% sucrose solution in a cotton wool plug. Assessment of knockdown was made one hour after introduction, and mortality was assessed at 24 and 48 hours after introduction.

Bemisia tabaci = Bemisia tabaci (Cotton White Fly): Feeding/Contact Activity; details: foliar, 144 h, application rate of 200 ppm, sprayed cotton leaf discs, adult white flies, 6 days after incubation
Method: Cotton leaf discs were placed on agar in 24-well microtiter plates and sprayed with aqueous test solutions prepared from 10,000 ppm DMSO stock solutions. After drying the leaf discs were infested with adult white flies. The samples were checked for mortality 6 days after incubation.

Euschistus heros = Euschistus heros (Neotropical Brown Stink Bug); details: 120 h, application rate of 200 ppm, sprayed soybean leaves, N2 nymphs, 5 days after infestation, read-out: effect in at least one of the two categories (mortality or growth inhibition)
Method: Soybean leaves on agar in 24-well microtiter plates were sprayed with aqueous test solutions prepared from 10,000 ppm DMSO stock solutions. After drying the leaves were infested with N2 nymphs. The samples were assessed for mortality and growth inhibition in comparison to untreated samples 5 days after infestation.

Tetranychus urticae = Tetranychus urticae (Two-Spotted Spider Mite): Feeding/Contact Activity; details: foliar, 192 h, application rate of 200 ppm, sprayed bean leaf discs, mixed population (mobile stages), 8 days after infestation
Method: Bean leaf discs on agar in 24-well microtiter plates were sprayed with aqueous test solutions prepared from 10,000 ppm DMSO stock solutions. After drying the leaf discs were infested with a mite population of mixed ages. The samples were assessed for mortality on mixed population (mobile stages) 8 days after infestation.

Myzus persicae [3] = test: Myzus persicae (Green Peach Aphid). Systemic Activity; details: 144 h, test rate of 24 ppm, roots of infested pea seedlings in test solution, 6 days
Method: Roots of pea seedlings infested with an aphid population of mixed ages were placed directly into aqueous test solutions prepared from 10,000 DMSO stock solutions. The samples were assessed for mortality 6 days after placing seedlings into test solutions.

Spodoptera littoralis [4] = test: Spodoptera littoralis (Egyptian Cotton Leaf Worm), uptake by lettuce roots from agar; details: 144 h, test rate of 12.5 ppm, mixed with agar, absorbed by lettuce roots, Spodoptera eggs, 6 days after infestation, read-out: effect in at least one of the three categories (mortality, anti-feeding, or growth inhibition)
Excerpt: Test compounds were applied by pipette from 10,000 ppm DMSO stock solutions into 24-well plates and mixed with agar. Lettuce seeds were placed onto the agar and the multi well plate was closed by another plate which contained also agar. After 7 days the compound was absorbed by the roots and the lettuce grew into the lid plate. The lettuce leaves were then cut off into the lid plate. Spodoptera eggs were pipetted through a plastic stencil onto a humid gel blotting paper and the lid plate was closed with it. The samples were assessed for mortality, anti-feedant effect and growth inhibition in comparison to untreated samples 6 days after infestation.

CCn1c(C(F)(F)F)cc2nc(-c3ncc(N)cc3S(=O)(=O)CC)n(C)c2c1=O [Compound A5, 2-(5-amino-3-ethylsulfonyl-2-pyridyl)-5-ethyl-3-methyl-6-(trifluoromethyl)imidazo[4,5-c]pyridin-4-one]
≥ 80%: effect mortality or growth inhibition at 200 ppm (Diabrotica balteata) | mortality at 200 ppm (Myzus persicae [1]) | percent effect (mortality or growth inhibition) at 200 ppm (Plutella xylostella) | percent control (mortality, anti-feeding effect or growth inhibition) at 200 ppm (Spodoptera littoralis [2]) | pest or weed control at 200 ppm (Aedes aegypti)

CCn1c(C(F)(F)F)cc2nc(-c3nc(N(C)C4CC4)ccc3S(=O)(=O)CC)n(C)c2c1=O [Compound A12, 2-[6-[cyclopropyl(methyl)amino]-3-ethylsulfonyl-2-pyridyl]-5-ethyl-3-methyl-6-(trifluoromethyl)imidazo[4,5-c]pyridin-4-one]
≥ 80%: mortality at 200 ppm (Bemisia tabaci) | effect mortality or growth inhibition at 200 ppm (Diabrotica balteata) | percent effect (mortality or growth inhibition) at 200 ppm (Euschistus heros) | mortality at 200 ppm (Myzus persicae [1]) | percent effect (mortality or growth inhibition) at 200 ppm (Plutella xylostella) | percent control (mortality, anti-feeding effect or growth inhibition) at 200 ppm (Spodoptera littoralis [2]) | pest or weed control at 200 ppm (Aedes aegypti)

CCn1c(C(F)(F)F)cc2nc(-c3ncc(N(C)S(C)(=O)=O)cc3S(=O)(=O)CC)n(C)c2c1=O [Compound A13, N-[6-[5-ethyl-3-methyl-4-oxo-6-(trifluoromethyl)imidazo[4,5-c]pyridin-2-yl]-5-ethylsulfonyl-3-pyridyl]-N-methyl-methanesulfonamide]
≥ 80%: percent effect (mortality or growth inhibition) at 200 ppm (Euschistus heros) | mortality at 200 ppm (Myzus persicae [1]) | percent effect (mortality or growth inhibition) at 200 ppm (Plutella xylostella) | percent control (mortality, anti-feeding effect or growth inhibition) at 200 ppm (Spodoptera littoralis [2]) | mortality at 200 ppm (Tetranychus urticae)

CCn1c(C(F)(F)F)cc2nc(-c3ncc(C(=O)NC4CC4)cc3S(=O)(=O)CC)n(C)c2c1=O [Compound A19, N-cyclopropyl-6-[5-ethyl-3-methyl-4-oxo-6-(trifluoromethyl)imidazo[4,5-c]pyridin-2-yl]-5-ethylsulfonyl-pyridine-3-carboxamide]
≥ 80%: percent effect (mortality or growth inhibition) at 200 ppm (Euschistus heros) | mortality at 24 ppm (Myzus persicae [3]) | percent effect (mortality or growth inhibition) at 200 ppm (Plutella xylostella) | mortality at 200 ppm (Tetranychus urticae)

CCn1c(C(F)(F)F)cc2nc(-c3ncc(NC4(C#N)CC4)cc3S(=O)(=O)CC)n(C)c2c1=O [Compound A24, 1-[[6-[5-ethyl-3-methyl-4-oxo-6-(trifluoromethyl)imidazo[4,5-c]pyridin-2-yl]-5-ethylsulfonyl-3-pyridyl]amino]cyclopropanecarbonitrile]
≥ 80%: effect mortality or growth inhibition at 200 ppm (Diabrotica balteata) | percent effect (mortality or growth inhibition) at 200 ppm (Euschistus heros) | percent effect (mortality or growth inhibition) at 200 ppm (Plutella xylostella) | percent control (mortality, anti-feeding effect or growth inhibition) at 200 ppm (Spodoptera littoralis [2]) | mortality at 200 ppm (Tetranychus urticae)

CCn1c(C(F)(F)F)cc2nc(-c3nc(N)c(Cl)cc3S(=O)(=O)CC)n(C)c2c1=O [Compound A38, 2-(6-amino-5-chloro-3-ethylsulfonyl-2-pyridyl)-5-ethyl-3-methyl-6-(trifluoromethyl)imidazo[4,5-c]pyridin-4-one]
≥ 80%: mortality at 200 ppm (Bemisia tabaci) | effect mortality or growth inhibition at 200 ppm (Diabrotica balteata) | percent effect (mortality or growth inhibition) at 200 ppm (Euschistus heros) | mortality at 200 ppm (Myzus persicae [1]) | percent effect (mortality or growth inhibition) at 200 ppm (Plutella xylostella) | percent control (mortality, anti-feeding effect or growth inhibition) at 200 ppm (Spodoptera littoralis [2]) | percent effect (mortality, anti-feeding or growth inhibition) at 12.5 ppm (Spodoptera littoralis [4]) | pest or weed control at 200 ppm (Aedes aegypti)

CCn1c(C(F)(F)F)cc2nc(-c3nc(N)c(Br)cc3S(=O)(=O)CC)n(C)c2c1=O [Compound A39, 2-(6-amino-5-bromo-3-ethylsulfonyl-2-pyridyl)-5-ethyl-3-methyl-6-(trifluoromethyl)imidazo[4,5-c]pyridin-4-one]
≥ 80%: mortality at 200 ppm (Bemisia tabaci) | effect mortality or growth inhibition at 200 ppm (Diabrotica balteata) | percent effect (mortality or growth inhibition) at 200 ppm (Euschistus heros) | mortality at 200 ppm (Myzus persicae [1]) | percent effect (mortality or growth inhibition) at 200 ppm (Plutella xylostella) | percent control (mortality, anti-feeding effect or growth inhibition) at 200 ppm (Spodoptera littoralis [2]) | percent effect (mortality, anti-feeding or growth inhibition) at 12.5 ppm (Spodoptera littoralis [4]) | pest or weed control at 200 ppm (Aedes aegypti)

CCS(=O)(=O)c1ccc(N)nc1-c1nc2cc(C(F)(F)F)n(C3CC3)c(=O)c2n1C [Compound A42, 2-(6-amino-3-ethylsulfonyl-2-pyridyl)-5-cyclopropyl-3-methyl-6-(trifluoromethyl)imidazo[4,5-c]pyridin-4-one]
≥ 80%: mortality at 200 ppm (Bemisia tabaci) | effect mortality or growth inhibition at 200 ppm (Diabrotica balteata) | percent effect (mortality or growth inhibition) at 200 ppm (Euschistus heros) | mortality at 200 ppm (Myzus persicae [1]) | mortality at 24 ppm (Myzus persicae [3]) | percent effect (mortality or growth inhibition) at 200 ppm (Plutella xylostella) | percent control (mortality, anti-feeding effect or growth inhibition) at 200 ppm (Spodoptera littoralis [2]) | percent effect (mortality, anti-feeding or growth inhibition) at 12.5 ppm (Spodoptera littoralis [4]) | mortality at 200 ppm (Tetranychus urticae)

CCn1c(C(F)(F)F)cc2nc(-c3ncc(NC(=O)OC(C)(C)C)cc3S(=O)(=O)CC)n(C)c2c1=O [Compound A64, tert-butyl N-[6-[5-ethyl-3-methyl-4-oxo-6-(trifluoromethyl)imidazo[4,5-c]pyridin-2-yl]-5-ethylsulfonyl-3-pyridyl]carbamate]
≥ 80%: mortality at 200 ppm (Bemisia tabaci) | percent effect (mortality or growth inhibition) at 200 ppm (Euschistus heros) | percent effect (mortality or growth inhibition) at 200 ppm (Plutella xylostella) | percent control (mortality, anti-feeding effect or growth inhibition) at 200 ppm (Spodoptera littoralis [2]) | mortality at 200 ppm (Tetranychus urticae)

CCn1c(C(F)(F)F)cc2nc(-c3nc(NC(=O)OC(C)(C)C)ccc3S(=O)(=O)CC)n(C)c2c1=O [Compound A66, tert-butyl N-[6-[5-ethyl-3-methyl-4-oxo-6-(trifluoromethyl)imidazo[4,5-c]pyridin-2-yl]-5-ethylsulfonyl-2-pyridyl]carbamate]
≥ 80%: mortality at 200 ppm (Bemisia tabaci) | effect mortality or growth inhibition at 200 ppm (Diabrotica balteata) | percent effect (mortality or growth inhibition) at 200 ppm (Plutella xylostella) | percent control (mortality, anti-feeding effect or growth inhibition) at 200 ppm (Spodoptera littoralis [2]) | percent effect (mortality, anti-feeding or growth inhibition) at 12.5 ppm (Spodoptera littoralis [4]) | mortality at 200 ppm (Tetranychus urticae)

CCn1c(C(F)(F)F)cc2nc(-c3nc(N)c(C4CC4)cc3S(=O)(=O)CC)n(C)c2c1=O [Compound A71]
≥ 80%: mortality at 200 ppm (Bemisia tabaci) | effect mortality or growth inhibition at 200 ppm (Diabrotica balteata) | percent effect (mortality or growth inhibition) at 200 ppm (Euschistus heros) | mortality at 200 ppm (Myzus persicae [1]) | mortality at 24 ppm (Myzus persicae [3]) | percent effect (mortality or growth inhibition) at 200 ppm (Plutella xylostella) | percent control (mortality, anti-feeding effect or growth inhibition) at 200 ppm (Spodoptera littoralis [2]) | mortality at 200 ppm (Tetranychus urticae)
